Several values for one entry are separate records, joined by “and”; a condition that tells them apart may be missing. Equal entries are not always repeated.
Tests used:
Format in all cases: cell-based
[1] = tested on: Panc-1 pancreatic cancer cells; assay: SRB analysis 2; details: 48 hours
Protocol: (§1) The SRB assay was performed as follows: each cell line (100 μl) was seeded into 96-well microtiter plates at densities ranging from 5,000 to 20,000 cells/well depending on the doubling time of each cell line. After cell seeding, microtiter plates were incubated for 24 h before addition of experimental drug. Drugs were prepared at the indicated concentrations and 100 μl was added to each well; The plates were then incubated in a CO2 incubator. Then, cold TCA was added to terminate the assay. Cells were fixed in situ by gentle addition of 50 μl of cold 50% (w/v) TCA (final concentration: 10% TCA) and incubated at 4° C. for 60 min. The supernatant was discarded and the plate was washed 5 times with tap water and then air dried. A solution (100 μl) of 0.4% (w/v) SRB (Sulforhodamine B) in 1% acetic acid was added to each well, and the plate was left at room temperature for 10 minutes. After staining, the plates were air dried after washing 5 times with 1% acetic acid to remove unbound dye. The bound dye was then solubilized with 10 mM trizma base and the absorbance was recorded at 515 nm using an automated plate reader.

[2] = tested on: BxPC-3 pancreatic cancer cells; assay: SRB analysis 2; details: 48 hours
Protocol: as §1

[3] = tested on: SNU-324 pancreatic cancer cells; assay: SRB analysis 2; details: SNU324, 48 hours
Protocol: as §1

[4] = tested on: SNU-213 pancreatic cancer cells; assay: SRB analysis 2; details: SNU213, 48 hours
Protocol: as §1

[5] = tested on: SW1990 pancreatic cancer cells; assay: SRB analysis 2; details: 48 hours
Protocol: as §1

[6] = tested on: MIA PaCa2 pancreatic cancer cells; assay: SRB analysis 2; details: MIA PaCa-2, 48 hours
Protocol: as §1

[7] = tested on: SU.86.86 pancreatic cancer cells; assay: SRB analysis 2; details: 48 hours
Protocol: as §1

[8] = tested on: AsPC-1 pancreatic cancer cells; assay: SRB analysis 2; details: 48 hours
Protocol: as §1

cancer cells = assay: SRB analysis 3, triple combination, summary over cancer panels
Protocol: (§2) Through SRB analysis (n=3), the effect of triple combination treatment of a CAC inhibitor (KN510: omeprazole), ACAA inhibitor (KN713: trimetazidine) and other anticancer drug on cell growth in the cancer cells was analyzed. (see Table 11).
(§3) The SRB assay was performed as follows: each cell line (100 μl) was seeded into 96-well microtiter plates at densities ranging from 5,000 to 40,000 cells/well depending on the doubling time of each cell line. After 24 hours, drug (100 μl per well) was added to each well and the culture was incubated at 37° C. for 48 hours. Cells were then fixed in 50% TCA (50 μl per well) and plates were incubated at 4° C. for a minimum of 1 hour or a maximum of 3 hours. After that, the liquid was removed from the plate, then rinsed 5 times with water and dried for approximately 12-24 hours at room temperature (RT). After the fixed cells were stained with 0.4% SRB (100 μl per well) for 10 minutes at room temperature, the plates were washed 3 times with 1% glacial acetic acid and dried at room temperature for about 12-24 hours. SRB staining was dissolved in 10 mM Trizma base and absorbance was read at 515 nm. The effect of the drug was expressed as GI50 (50% growth inhibition), TGI (total growth inhibition) or LC50 (lethal concentration). GI50 is the maximum concentration at the moment of 50% inhibition of cell proliferation and IC50 is the concentration of the drug that inhibits the enzyme activity in vitro by 50% in this study.

[9] = tested on: U87MG glioblastoma (GBM) cell line; assay: SRB analysis 3; details: Paclitaxel 10 nM, 48 hours
Protocol: as §3, with “Through SRB analysis (n=3), the effect of triple combination treatment of a CAC inhibitor ([…] inhibitor (KN713: trimetazidine) and other anticancer drug on cell growth in the cancer cells was analyzed. (see Table 11). The” for “The”, “nm.” for “nm. The effect of the drug was expressed as GI50 (50% growth inhibition), TGI (total growth inhibition) or LC50 (lethal concentration). GI50 is the maximum concentration at the moment of 50% inhibition of cell proliferation and IC50 is the concentration of the drug that inhibits the enzyme activity in vitro by 50% in this study.”

[10] = tested on: T87G glioblastoma (GBM) cell line; assay: SRB analysis 3; details: Paclitaxel 10 nM, 48 hours
Protocol: as §3, with “Through SRB analysis (n=3), the effect of triple combination treatment of a CAC inhibitor ([…] inhibitor (KN713: trimetazidine) and other anticancer drug on cell growth in the cancer cells was analyzed. (see Table 11). The” for “The”, “nm.” for “nm. The effect of the drug was expressed as GI50 (50% growth inhibition), TGI (total growth inhibition) or LC50 (lethal concentration). GI50 is the maximum concentration at the moment of 50% inhibition of cell proliferation and IC50 is the concentration of the drug that inhibits the enzyme activity in vitro by 50% in this study.”

A375 melanoma cell line = assay: SRB analysis 3; details: Paclitaxel 10 nM, 48 hours
Protocol: as §2, §3

[11] = tested on: MIA PaCa-2 pancreatic cancer (PDAC) cell line; assay: SRB analysis 3; details: Paclitaxel 10 nM, 48 hours
Protocol: as §2, §3

[12] = tested on: MKN45 gastric cancer cell line; assay: SRB analysis 3; details: MKN-45; Paclitaxel 20 nM; 48 hours
Protocol: as §2, §3

[13] = tested on: DU145 prostate cancer cell line; assay: SRB analysis 3; details: Paclitaxel 10 nM, 48 hours
Protocol: as §2, §3

[14] = tested on: Caki-1 renal cancer cell line; assay: SRB analysis 3; details: Paclitaxel 10 nM, 48 hours
Protocol: as §2, §3

[15] = tested on: UACC62 melanoma cell line; assay: SRB analysis 3; details: Paclitaxel 10 nM, 48 hours
Protocol: as §2, §3

[16] = tested on: OVCAR-8 ovarian cancer cell line; assay: SRB analysis 3; details: Paclitaxel 10 μM, 48 hours
Protocol: as §2, §3

[17] = tested on: AsPC-1 pancreatic cancer (PDAC) cell line; assay: SRB analysis 3; details: Paclitaxel 10 nM, 48 hours
Protocol: as §2, §3

[18] = tested on: AGS gastric cancer cell line; assay: SRB analysis 3; details: Paclitaxel 20 nM, 48 hours
Protocol: as §2, §3

[19] = tested on: COLO-205 colon cancer cell line; assay: SRB analysis 3; details: Paclitaxel 10 nM, 48 hours
Protocol: as §2, §3

[20] = tested on: SK-OV-3 ovarian cancer cell line; assay: SRB analysis 3; details: Paclitaxel 10 μM, 48 hours
Protocol: as §2, §3

[21] = tested on: MCF7 breast cancer cell line; assay: SRB analysis 3; details: Paclitaxel 10 μM, 48 hours
Protocol: as §2, §3

[22] = tested on: HCT-116 colon cancer cell line; assay: SRB analysis 3; details: Paclitaxel 10 nM, 48 hours
Protocol: as §2, §3

[23] = tested on: MDA-MB-231 breast cancer cell line; assay: SRB analysis 3; details: Paclitaxel 10 μM, 48 hours
Protocol: as §2, §3

[24] = tested on: H1975 non-small cell lung cancer (NSCLC) cell line; assay: SRB analysis 3; details: Paclitaxel 10 nM, 48 hours
Protocol: as §2, §3

[25] = tested on: ACHN renal cancer cell line; assay: SRB analysis 3; details: Paclitaxel 10 nM, 48 hours
Protocol: as §2, §3

[26] = tested on: PC-3 prostate cancer cell line; assay: SRB analysis 3; details: Paclitaxel 10 nM, 48 hours
Protocol: as §2, §3

[27] = tested on: A549 non-small cell lung cancer (NSCLC) cell line; assay: SRB analysis 3; details: Paclitaxel 10 nM, 48 hours
Protocol: as §2, §3

[28] = tested on: SK-hep-1 liver cancer cell line; assay: SRB analysis 3; details: Paclitaxel 10 μM, 48 hours
Protocol: as §2, §3

[29] = tested on: Huh-7 liver cancer cell line; assay: SRB analysis 3; details: Paclitaxel 10 μM, 48 hours
Protocol: as §2, §3

For Cc1c(OCC(F)(F)F)ccnc1C[S+]([O-])c1nc2ccccc2[nH]1 (centres unmarked) [KN511, lansoprazole], the “degree of cell growth based on the control (100%)” value (shortened to “degree … (100%)”) ([1]; KN511 50 μM) was 65.77% and 39.30%, the “degree … (100%)” value ([2]; KN511 50 μM) was 30.51% and 41.39% and the “degree … (100%)” value ([2]; KN511 100 μM) was −4.87% and −1.66%. For the same compound, the “degree … (100%)” value ([3]; KN511 50 μM) was 16.15% and 17.09%, the “degree … (100%)” value ([3]; KN511 100 μM) was 4.93% and 8.06% and the “degree … (100%)” value ([4]; KN511 50 μM) was 46.12% and 49.55%. For the same compound, the “degree … (100%)” value ([5]; KN511 50 μM) was 2.62% and 7.49%, the “degree … (100%)” value ([5]; KN511 100 μM) was −25.25% and the “degree … (100%)” value ([6]; KN511 50 μM) was 72.22% and 68.24%. The “degree … (100%)” value ([6]; KN511 100 μM) was 24.61% and 16.12%, the “degree … (100%)” value ([7]; KN511 50 μM) was 44.93% and 31.47% and the “degree … (100%)” value ([8]; KN511 50 μM) was 44.46% and 38.02%. For the same compound, the “degree … (100%)” value ([8]; KN511 100 μM) was 20.33% and 14.98%.
With COc1ccnc(C[S+]([O-])c2nc3ccc(OC(F)F)cc3[nH]2)c1OC (centres unmarked) [KN512, pantoprazole] the “degree … (100%)” value ([1]; KN512 100 μM) was 54.90% and 57.01%, the “degree … (100%)” value ([1]; KN512 200 μM) was 6.03% and 12.81% and the “degree … (100%)” value ([2]; KN512 100 μM) was 34.14% and 49.52%. For the same compound, the “degree … (100%)” value ([2]; KN512 200 μM) was −10.63% and −6.75%, the “degree … (100%)” value ([3]; KN512 100 μM) was 61.20% and 74.13% and the “degree … (100%)” value ([3]; KN512 200 μM) was 23.82% and 21.77%. For the same compound, the “degree … (100%)” value ([4]; KN512 100 μM) was 66.09% and 59.49%, the “degree … (100%)” value ([4]; KN512 200 μM) was 36.60% and 51.18% and the “degree … (100%)” value ([5]; KN512 100 μM) was 70.30% and 73.00%. The “degree … (100%)” value ([5]; KN512 200 μM) was 25.58% and 41.93%, the “degree … (100%)” value ([6]; KN512 100 μM) was 62.60% and 66.74% and the “degree … (100%)” value ([6]; KN512 200 μM) was 5.82% and 1.98%. For the same compound, the “degree … (100%)” value ([7]; KN512 100 μM) was 59.26% and 70.59%, the “degree … (100%)” value ([7]; KN512 200 μM) was 19.69% and 26.47% and the “degree … (100%)” value ([8]; KN512 100 μM) was 64.75% and 71.27%. For the same compound, the “degree … (100%)” value ([8]; KN512 200 μM) was 23.37% and 25.43%.
CC(=O)O[C@H]1C(=O)[C@@]2(C)[C@H]([C@H](OC(=O)c3ccccc3)[C@]3(O)C[C@H](OC(=O)[C@H](O)[C@@H](NC(=O)c4ccccc4)c4ccccc4)C(C)=C1C3(C)C)[C@]1(OC(C)=O)CO[C@@H]1C[C@@H]2O [Paclitaxel] was tested, and the “Positive/Negative (triple combination of KN510, KN713 and the listed anticancer drug)” value (shortened to “Positive/Negative”) (cancer cells; Breast Cancer, BT-549, MDA MB 231) was “Positive”, the “Positive/Negative” value (cancer cells; Colon Cancer, HT-29, COLO-205) was “Positive” and the “Positive/Negative” value (cancer cells; GBM, U87MG, T87G) was “Positive”. For the same compound, the “Positive/Negative” value (cancer cells; Liver Cancer, SNU-449, Huh-7) was “Positive”, the “Positive/Negative” value (cancer cells; NSCLC, A549, H522) was “Positive” and the “Positive/Negative” value (cancer cells; Ovarian Cancer, SK-OV-3, OVCAR-3) was “Positive”. For the same compound, the “Positive/Negative” value (cancer cells; PDAC, MIA PaCa-2, PANC-1) was “Positive”, the “Positive/Negative” value (cancer cells; Prostate Cancer, PC-3, DU-145) was “Positive” and the “Positive/Negative” value (cancer cells; Renal cell carcinoma, ACHN, CAKI-1) was “negative”. The “Positive/Negative” value (cancer cells; Stomach Cancer, MKN-28, AGS) was “Positive”, the “Positive/Negative” value (cancer cells; melanoma, UACC62, A375) was “Positive” and the “cell growth (Control = 100)” value [9] was 28.87. For the same compound, the “cell growth (Control = 100)” value [10] was 56.70, the “cell growth (Control = 100)” value (A375 melanoma cell line) was 40.20 and the “cell growth (Control = 100)” value [11] was 16.4. The “cell growth (Control = 100)” value [12] was 8.846, the “cell growth (Control = 100)” value [13] was 46.381 and the “cell growth (Control = 100)” value [14] was 128.124. For the same compound, the “cell growth (Control = 100)” value [15] was 65.90, the “cell growth (Control = 100)” value [16] was 76.61 and the “cell growth (Control = 100)” value [17] was 41.94. For the same compound, the “cell growth (Control = 100)” value [18] was 20.3903, the “cell growth (Control = 100)” value [19] was −8.628 and the “cell growth (Control = 100)” value [20] was 62.41. The “cell growth (Control = 100)” value [21] was 17.28, the “cell growth (Control = 100)” value [22] was 15.07 and the “cell growth (Control = 100)” value [23] was 70.48. The “cell growth (Control = 100)” value [24] was 45.06, the “cell growth (Control = 100)” value [25] was 105.2409 and the “cell growth (Control = 100)” value [26] was 47.85. For the same compound, the “cell growth (Control = 100)” value [27] was 17.6, the “cell growth (Control = 100)” value [28] was 78.76 and the “cell growth (Control = 100)” value [29] was 63.01.

— US12728119B2, “Pharmaceutical composition for preventing or treating cancer comprising 3-ketoacyl CoA thiolase inhibitor and carnitine acylcarnitine carrier inhibitor” (NATIONAL CANCER CENTER, priority 2020, dated 2026)
